“And” between values parts separate entries of the source, which are not always exact repeats. Equal values may be shown once.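 Grown in 96-well plates, cells were treated for 48 hours with each compound at five concentrations. Insufficient inhibition: endpoint recorded as highest concentration tested. GI50: concentration for 50% inhibition of growth. TGI marks complete inhibition of growth.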
Columns and labels:
Assay in all cases: NCI-60 cell line screen, 48 h
[1] = tested on: SK-MEL-2 melanoma
[2] = tested on: HCT-15 colon
[3] = tested on: SN12C renal
[4] = tested on: TK-10 renal
[5] = tested on: LXFL 529 NSCLC
[6] = tested on: MOLT-4 leukemia
[7] = tested on: HOP-62 NSCLC
[8] = tested on: NCI/ADR-RES ovarian
[9] = tested on: A498 renal

SMILES	GI50 [1] [µM]	TGI [1]	GI50 [2] [µM]	TGI [2]	GI50 [3] [µM]	TGI [3] [µM]	GI50 [4] [µM]	TGI [4]	GI50 [5] [µM]	TGI [5] [µM]	GI50 [6] [µM]	TGI [6] [µM]	GI50 [7] [µM]	TGI [7] [µM]	GI50 [8] [µM]	TGI [8]	TGI [9] [µM]	GI50 [9] [µM]
N.N.N.N.N.N#Cc1nn[n-]n1.[Cl-].[Co+3]	> 100	> 100 µM	> 100	> 100 µM	> 100	> 100	> 100	> 100 µM	> 100	> 100	> 100	> 100	> 100	> 100	–	–	–	–
CC(=O)NC(CS)C(=O)O (stereo not drawn)	> 100	> 100 µM and 66300 µM	> 100	> 100 µM and 47600 µM	> 100	> 100	> 100	> 100 µM and 76500 µM	–	–	> 100	> 100	–	45500	> 100	> 100 µM and 81500 µM	18500	–
CCC1=C[C@@H]2CN(C1)Cc1c([nH]c3ccccc13)[C@@](C(=O)OC)(c1cc3c(cc1OC)N(C)[C@H]1[C@@](O)(C(=O)OC)[C@H](OC(C)=O)[C@]4(CC)C=CCN5CC[C@]31[C@@H]54)C2	0.727	9.23 µM	0.141	6.8 µM	< 0.0214	43.7	0.641	16.7 µM	–	–	< 0.01	3.5	< 0.0148	24.4	1.58	30.5 µM	0.141	< 0.01
O=C(Nc1ccc(Oc2ccc(NC(=O)Nc3ccccc3Cl)cc2)cc1)Nc1ccccc1Cl	8.17	> 20.4 µM	0.677	> 100 µM	7.55	> 100	4.72	45.1 µM	–	–	12.1	32.9	12.4	34.1	10.8	> 63.8 µM	64.3	22.2
CCSc1nc(NC(C)c2ccccc2)c2cnn(CO)c2n1 (stereo not drawn)	> 100	> 100 µM	70.2	> 100 µM	> 100	> 100	47.7	> 100 µM	–	–	> 100	> 100	> 100	> 100	80.8	> 100 µM	> 100	27
CCCCCCCCCCCCNC(=O)N[C@H](C(=O)N[C@H]1/C=C/CCNC(=O)/C=C/[C@H](C)NC1=O)C(C)C	0.207	0.627 µM	2.76	> 100 µM	0.184	0.591	0.0352	0.191 µM	–	–	0.0448	1.13	0.0538	0.178	> 100	> 100 µM	0.362	0.0649
COc1cc(N2CCN(C(C)C)CC2)ccc1Nc1nc(Nc2ccc(F)cc2C(=O)NCC(O)CO)c2cc[nH]c2n1 (stereo not drawn)	4.18	> 23.6 µM	> 25	> 25 µM	7.62	> 25	11.9	> 25 µM	–	–	8.68	> 25	4.09	> 25	> 25	> 25 µM	> 25	2.5

— PubChem BioAssay (NCI)
